From the supplement of paper PMC10307832

What was measured:
Assay in all cases: relative viability (nuclei count vs DMSO), 5 days (fraction); higher = more cells survive
[1] = compound: C#Cc1cccc(Nc2ncnc3cc(OC)c(OCCCCCCC(=O)NO)cc23)c1 [CUDC-101] + CC1(C)CCC(c2ccc(Cl)cc2)=C(CN2CCN(c3ccc(C(=O)NS(=O)(=O)c4ccc(N[C@H](CCN5CCOCC5)CSc5ccccc5)c(S(=O)(=O)C(F)(F)F)c4)cc3)CC2)C1 [Navitoclax] (partner 0.5 µM)
Summary of the method: (§1)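 Lung cancer cell lines were seeded in 1536-well plates and dosed by pin tool the next day, with either a single drug or a fixed anchor-drug dose combined with five library-drug doses (not always all listed) spaced in √10 steps. Five days later, one step fixed the cells and stained their nuclei (final 0.05% Triton X-100, 1% formaldehyde, 1 ug/ml Hoechst), and nuclei were counted on 4× images. Relative viability is the nuclei count in treated wells divided by the count in vehicle wells, and each value is the median of duplicate plates.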

[2] = compound: COc1cc(N2CCC(N3CCN(C)CC3)CC2)ccc1Nc1ncc(Cl)c(Nc2ccccc2S(=O)(=O)C(C)C)n1 [NVP-TAE684] + CC(=O)c1c(C)c2cnc(Nc3ccc(N4CCNCC4)cn3)nc2n(C2CCCC2)c1=O [Palbociclib] (partner 0.5 µM)
Summary of the method: as §1

[3] = compound: C#Cc1cccc(Nc2ncnc3cc(OC)c(OCCCCCCC(=O)NO)cc23)c1 [CUDC-101] + CC(=O)Nc1cccc(-n2c(=O)n(C3CC3)c(=O)c3c(Nc4ccc(I)cc4F)n(C)c(=O)c(C)c32)c1 [Trametinib] (partner 0.02 µM)
Summary of the method: as §1

Cell Line: HOP-62
- relative viability ([1]; first compound 0.01 µM): 1.17
- relative viability ([1]; first compound 0.03162 µM): 0.954
- relative viability ([1]; first compound 0.1 µM): 1.02
- relative viability ([1]; first compound 0.3162 µM): 1.02
- relative viability ([1]; first compound 1 µM): 1.01
- relative viability ([2]; first compound 0.2 µM): 0.54
- relative viability ([2]; first compound 0.6325 µM): 0.501
- relative viability ([2]; first compound 2 µM): 0.491
- relative viability ([3]; first compound 0.01 µM): 0.362
- relative viability ([3]; first compound 0.03162 µM): 0.361
- relative viability ([3]; first compound 0.1 µM): 0.403
- relative viability ([3]; first compound 0.3162 µM): 0.441
- relative viability ([3]; first compound 1 µM): 0.346

Cell Line: NCI-H2170
- relative viability ([1]; first compound 0.01 µM): 0.628
- relative viability ([1]; first compound 0.03162 µM): 0.636
- relative viability ([1]; first compound 0.1 µM): 0.648
- relative viability ([1]; first compound 0.3162 µM): 0.599
- relative viability ([1]; first compound 1 µM): 0.313
- relative viability ([2]; first compound 0.2 µM): 0.33
- relative viability ([2]; first compound 0.6325 µM): 0.382
- relative viability ([2]; first compound 2 µM): 0.375
- relative viability ([3]; first compound 0.01 µM): 0.951
- relative viability ([3]; first compound 0.03162 µM): 0.967
- relative viability ([3]; first compound 0.1 µM): 0.883
- relative viability ([3]; first compound 0.3162 µM): 0.939
- relative viability ([3]; first compound 1 µM): 0.843

Cell Line: NCI-H522
- relative viability ([2]; first compound 0.2 µM): 0.973
- relative viability ([2]; first compound 0.6325 µM): 0.99
- relative viability ([2]; first compound 2 µM): 0.893
- relative viability ([3]; first compound 0.01 µM): 0.605
- relative viability ([3]; first compound 0.03162 µM): 0.747
- relative viability ([3]; first compound 0.1 µM): 0.893
- relative viability ([3]; first compound 0.3162 µM): 0.651
- relative viability ([3]; first compound 1 µM): 0.642

Cell Line: NCI-H1651
- relative viability ([1]; first compound 0.01 µM): 1.13
- relative viability ([1]; first compound 0.03162 µM): 0.938
- relative viability ([1]; first compound 0.1 µM): 1.22
- relative viability ([1]; first compound 0.3162 µM): 1.04
- relative viability ([1]; first compound 1 µM): 0.887
- relative viability ([2]; first compound 0.2 µM): 0.506
- relative viability ([2]; first compound 0.6325 µM): 0.572
- relative viability ([2]; first compound 2 µM): 0.468
- relative viability ([3]; first compound 0.01 µM): 0.863
- relative viability ([3]; first compound 0.03162 µM): 0.786
- relative viability ([3]; first compound 0.1 µM): 0.806
- relative viability ([3]; first compound 0.3162 µM): 0.845
- relative viability ([3]; first compound 1 µM): 0.8

Cell Line: NCI-H460
- relative viability ([1]; first compound 0.01 µM): 1.23
- relative viability ([1]; first compound 0.03162 µM): 1.12
- relative viability ([1]; first compound 0.1 µM): 1.15
- relative viability ([1]; first compound 0.3162 µM): 1.06
- relative viability ([1]; first compound 1 µM): 0.965
- relative viability ([2]; first compound 0.2 µM): 0.183
- relative viability ([2]; first compound 0.6325 µM): 0.168
- relative viability ([2]; first compound 2 µM): 0.098
- relative viability ([3]; first compound 0.01 µM): 0.108
- relative viability ([3]; first compound 0.03162 µM): 0.224
- relative viability ([3]; first compound 0.1 µM): 0.227
- relative viability ([3]; first compound 0.3162 µM): 0.182
- relative viability ([3]; first compound 1 µM): 0.0486

Cell Line: NCI-H1734
- relative viability ([1]; first compound 0.01 µM): 0.959
- relative viability ([1]; first compound 0.03162 µM): 0.82
- relative viability ([1]; first compound 0.1 µM): 0.917
- relative viability ([1]; first compound 0.3162 µM): 0.911
- relative viability ([1]; first compound 1 µM): 0.501
- relative viability ([2]; first compound 0.2 µM): 0.375
- relative viability ([2]; first compound 0.6325 µM): 0.324
- relative viability ([2]; first compound 2 µM): 0.316
- relative viability ([3]; first compound 0.01 µM): 0.694
- relative viability ([3]; first compound 0.03162 µM): 0.594
- relative viability ([3]; first compound 0.1 µM): 0.761
- relative viability ([3]; first compound 0.3162 µM): 0.786
- relative viability ([3]; first compound 1 µM): 0.523

Cell Line: NCI-H1915
- relative viability ([1]; first compound 0.01 µM): 0.796
- relative viability ([1]; first compound 0.03162 µM): 0.793
- relative viability ([1]; first compound 0.1 µM): 0.804
- relative viability ([1]; first compound 0.3162 µM): 0.743
- relative viability ([1]; first compound 1 µM): 0.743
- relative viability ([2]; first compound 0.2 µM): 0.558
- relative viability ([2]; first compound 0.6325 µM): 0.525
- relative viability ([2]; first compound 2 µM): 0.491
- relative viability ([3]; first compound 0.01 µM): 0.308
- relative viability ([3]; first compound 0.03162 µM): 0.287
- relative viability ([3]; first compound 0.1 µM): 0.305
- relative viability ([3]; first compound 0.3162 µM): 0.314
- relative viability ([3]; first compound 1 µM): 0.273

Cell Line: NCI-H661
- relative viability ([2]; first compound 0.2 µM): 0.423
- relative viability ([2]; first compound 0.6325 µM): 0.378
- relative viability ([2]; first compound 2 µM): 0.424
- relative viability ([3]; first compound 0.01 µM): 0.566
- relative viability ([3]; first compound 0.03162 µM): 0.529
- relative viability ([3]; first compound 0.1 µM): 0.609
- relative viability ([3]; first compound 0.3162 µM): 0.542
- relative viability ([3]; first compound 1 µM): 0.374

Cell Line: Calu-6
- relative viability ([1]; first compound 0.01 µM): 0.93
- relative viability ([1]; first compound 0.03162 µM): 1.1
- relative viability ([1]; first compound 0.1 µM): 0.848
- relative viability ([1]; first compound 0.3162 µM): 0.82
- relative viability ([1]; first compound 1 µM): 0.624

Cell Line: NCI-H2228
- relative viability ([1]; first compound 0.01 µM): 0.941
- relative viability ([1]; first compound 0.03162 µM): 0.646
- relative viability ([1]; first compound 0.1 µM): 0.607
- relative viability ([1]; first compound 0.3162 µM): 1.11
- relative viability ([1]; first compound 1 µM): 0.846
- relative viability ([2]; first compound 0.2 µM): 0.44
- relative viability ([2]; first compound 0.6325 µM): 0.253
- relative viability ([2]; first compound 2 µM): 0.279
- relative viability ([3]; first compound 0.01 µM): 0.553
- relative viability ([3]; first compound 0.03162 µM): 0.467
- relative viability ([3]; first compound 0.1 µM): 0.486
- relative viability ([3]; first compound 0.3162 µM): 0.912
- relative viability ([3]; first compound 1 µM): 0.537

Cell Line: NCI-H1975
- relative viability ([1]; first compound 0.01 µM): 1.32
- relative viability ([1]; first compound 0.03162 µM): 1.09
- relative viability ([1]; first compound 0.1 µM): 1.19
- relative viability ([1]; first compound 0.3162 µM): 1.27
- relative viability ([1]; first compound 1 µM): 1.13
- relative viability ([2]; first compound 0.2 µM): 0.591
- relative viability ([2]; first compound 0.6325 µM): 0.589
- relative viability ([2]; first compound 2 µM): 0.37
- relative viability ([3]; first compound 0.01 µM): 0.38
- relative viability ([3]; first compound 0.03162 µM): 0.322
- relative viability ([3]; first compound 0.1 µM): 0.347
- relative viability ([3]; first compound 0.3162 µM): 0.692
- relative viability ([3]; first compound 1 µM): 0.319

Cell Line: NCI-H2087
- relative viability ([1]; first compound 0.01 µM): 0.945
- relative viability ([1]; first compound 0.03162 µM): 1.07
- relative viability ([1]; first compound 0.1 µM): 1.04
- relative viability ([1]; first compound 0.3162 µM): 0.98
- relative viability ([1]; first compound 1 µM): 0.727
- relative viability ([2]; first compound 0.2 µM): 0.206
- relative viability ([2]; first compound 0.6325 µM): 0.22
- relative viability ([2]; first compound 2 µM): 0.248
- relative viability ([3]; first compound 0.01 µM): 0.224
- relative viability ([3]; first compound 0.03162 µM): 0.225
- relative viability ([3]; first compound 0.1 µM): 0.204
- relative viability ([3]; first compound 0.3162 µM): 0.195
- relative viability ([3]; first compound 1 µM): 0.185

Cell Line: NCI-H1703
- relative viability ([1]; first compound 0.01 µM): 0.968
- relative viability ([1]; first compound 0.1 µM): 1.21
- relative viability ([1]; first compound 0.3162 µM): 1.59
- relative viability ([1]; first compound 1 µM): 0.794

Cell Line: EBC-1
- relative viability ([1]; first compound 0.01 µM): 0.41
- relative viability ([1]; first compound 0.03162 µM): 0.377
- relative viability ([1]; first compound 0.1 µM): 0.365
- relative viability ([1]; first compound 0.3162 µM): 0.184
- relative viability ([1]; first compound 1 µM): 0.144

Cell Line: NCI-H1648
- relative viability ([2]; first compound 0.2 µM): 0.241
- relative viability ([2]; first compound 0.6325 µM): 0.295
- relative viability ([2]; first compound 2 µM): 0.202
- relative viability ([3]; first compound 0.01 µM): 0.461
- relative viability ([3]; first compound 0.03162 µM): 0.595
- relative viability ([3]; first compound 0.1 µM): 0.437
- relative viability ([3]; first compound 0.3162 µM): 0.351
- relative viability ([3]; first compound 1 µM): 0.277
